Patent US8580229B2, “Amyloid imaging as a surrogate marker for efficacy of anti-amyloid therapies” (University of Pittsburgh—of the Commonwealth System of …, priority 2004, dated 2013)

Test system: amyloid deposition in AD brain (homogenates of frontal, temporal, parietal cortex and cerebellum)
Assay: [^3H]PIB binding to homogenates of postmortem brain
Design: species or system human
Details: AD n=5, control n=4; 1 nM [^3H]PIB
Protocol: To determine whether benzothiazole amyloid imaging probes might be sensitive to changes in brain amyloid deposition caused by an anti-amyloid therapy in general, testing by immunization with AN-1792 was performed. Studies were performed for the binding of {N-methyl-^3H}2-[4′-(methylamino)phenyl]6-hydroxy-benzothiazole ([^3H]PIB) to homogenates of frontal cortex and cerebellum obtained from control subjects (n=4), AD patients (n=5) and from a single AN-1792-treated AD case (in duplicate). See, e.g., Example 9.
This [^11C]PIB retention follows the known topography of amyloid deposition in AD brain (Klunk et al. 2004, Ann. Neurol., 55 (3):306-19). To determine whether the present benzothiazole amyloid imaging probes are sensitive to changes in brain amyloid deposition caused by an anti-amyloid therapy in general, studies were performed for the binding of {N-methyl-^3H}2-[4′-(methylamino)phenyl]6-hydroxy-benzothiazole ([^3H]PIB) to homogenates of postmortem brain from […] AN-1792-treated AD cases. […] An aliquot was submitted for Aβ ELISA and another aliquot was assayed for [^3H]PIB binding after dilution with phosphate-buffered saline (100 mg tissue, incubated with 1 nM [^3H]PIB, filtered, washed and counted to determine bound [^3H]PIB).

SMILES: [3H]C([3H])([3H])Nc1ccc(-c2nc3ccc(O)cc3s2)cc1 [[^3H]PIB, {N-methyl-^3H}2-[4′-(methylamino)phenyl]6-hydroxy-benzothiazole]
- [^3H]PIB binding to frontal cortex homogenates of AD patients compared to control brain: elevated [^3H]PIB binding compared to control brain
